The values that follow come from patent US20240287082A1, “NEW BENZODIAZEPINE DERIVATIVES AS GABA A GAMMA1 PAM” (Hoffmann-La Roche Inc., priority 2021, published 2024).

The target of assay [1] is human GABAA α2β2γ1 receptor (Homo sapiens (Human), UniProt P47869+Q8N1C3). Description: Radioligand binding assay, competition for [3H]RO7239181, γ1-containing GABAA subtype α2β2γ1. To be noted: for γ2/γ1 Selectivity Ratio: Ki α1β3γ2 (nM)/Ki α2β2γ1 (nM); for LogSel: Log[Ki α1β3γ2 (nM)/Ki α2β2γ1 (nM)]. The procedure:
The affinity of compounds at GABAA γ1 subunit-containing receptors was measured by competition for [^3H]RO7239181 (67.3 Ci/mmol; Roche) binding to membranes from HEK293F cells (ThermoFisher R^79007) expressing human (transiently transfected) receptors of composition α5β2γ1, α2β2γ1, α1β2γ1.
(§1) Harvested pellets from HEK293F cells expressing the different GABAA receptor subtypes were resuspended in Mannitol Buffer pH 7.2-7.4 (Mannitol 0.29M, Triethylamine 10 mM, Acetic acid 10 mM, EDTA 1 mM plus protease inhibitors (20 tablets Complete, Roche Diagnostics Cat. No. 05 056 489 001 per liter)), washed two times and then resuspended at 1:10 to 1:15 dilution in the same buffer. Cell disruption was performed by stirring the suspension in a Parr vessel #4637 at 435 psi for 15 minutes, and then the suspensions were centrifuged at 1000×g for 15 minutes at 4° C. (Beckman Avanti J-HC: rotor JS-4.2). The supernatant (S1) was transferred in a 21 Schott flask and the pellet (P1) was resuspended with Mannitol Buffer up to 175 ml. The resuspended pellet was transferred into a 250 ml Corning centrifugal beaker and centrifuged at 1500×g for 10 minutes at 4° C. (Beckman Avanti J-HC: rotor JS-4.2). The supernatant (S1) was then transferred in the 21 Schott flask and the pellet was discarded. The supernatants (S1) were centrifuged in 500 ml Beckman polypropylene centrifugal beaker at 15 000×g for 30 minutes at 4° C. (Beckman Avanti J-20 XP: rotor JLA-10.500). The pellet (P2) was resuspended with Mannitol Buffer 1:1 and frozen at −80° C. The supernatant (S2) was centrifuged in 100 ml Beckman polypropylene centrifugal tubes at 48000×g for 50 minutes at 4° C. (Beckman Avanti J-20 XP: rotor JA-18). The supernatant (S3) was discarded and the pellet (P3) was resuspended with 1:1 Mannitol Buffer. The P2 and P3 protein concentration was determined with the BIORAD Standard assay method with bovine serum albumin as standard and measured on the NANO-Drop 1000. The membrane suspension was aliquots (500 μl per tube) and stored at −80° C. until required.
(§2) Membrane homogenates were resuspended and polytronised (Polytron PT1200E Kinematica AG) in Potassium Phosphate 10 mM, KCl 100 mM binding buffer at pH 7.4 to a final assay concentration determined with a previous experiment.
(§3) Assays were incubated to equilibrium for 1 hour at 4° C. and then, membranes were filtered onto unifilter (96-well white microplate with bonded GF/C filters preincubated 20-50 minutes in 0.3% Polyethylenimine) with a Filtermate 196 harvester (Packard BioScience) and washed 4 times with cold Potassium Phosphate 10 mM pH 7.4, KCl 100 mM binding buffer. After anhydrousing, filter-retained radioactivity was detected by liquid scintillation counting. Ki values were calculated using Excel-Fit (Microsoft) and are the means of two determinations.

Assay [2] addresses human GABAA α5β2γ1 receptor (Homo sapiens (Human), UniProt P31644+Q8N1C3). Description: Radioligand binding assay, competition for [3H]RO7239181, γ1-containing GABAA subtype α5β2γ1. The procedure: The affinity of compounds at GABAA γ1 subunit-containing receptors was measured by competition for [^3H]RO7239181 (67.3 Ci/mmol; Roche) binding to membranes from HEK293F cells (ThermoFisher R^79007) expressing human (transiently transfected) receptors of composition α5β2γ1, α2β2γ1, α1β2γ1. For better protein expression of the α2 subunit-containing receptors, the 28 amino acid long signal peptide (Met1 to Ala28)of the human GABAA α2 subunit was substituted by the 31 amino acid long signal peptide (Met1 to Ser31) of human GABAA α5 subunit.
as §1, §2
as §3, with “Radioligand binding assays were carried out in a volume of 200 μL (96-well plates) which contained 100 μL of cell membranes, [3H]RO7239181 at a concentration of 1.5 nM (α5β2γ1) or 20-30 nM (α1β2γ1, α2β2γ1) and the test compound in the range of [0.3-1000]×10^−9 M. Nonspecific binding was defined by 10×10^−6 (α5β2γ1) and 30×10^−6 M RO7239181 and typically represented less than 5% (α5β2γ1) and less than 20% (α1β2γ1, α2β2γ1) of the total binding. Assays” for “Assays”

The target of assay [3] is human GABAA α1β3γ2 receptor (Homo sapiens (Human), UniProt P14867+P18507). In words: Radioligand binding assay, competition for [3H]Flumazenil, γ2-containing GABAA subtype α1β3γ2. The procedure: The affinity of compounds at GABAA γ2 subunit-containing receptors was measured by competition for [^3H]Flumazenil (81.1 Ci/mmol; Roche) binding to HEK293F cells expressing human (transiently transfected) receptors of composition α1β3γ2.
Harvested pellets from HEK293F cells expressing the different GABAA γ2 receptor subtypes were resuspended in Mannitol Buffer pH 7.2-7.4 and processed as described above for the cells expressing the GABAA γ1 subunit-containing receptors.
Assays were incubated to equilibrium for 1 hour at 4° C. and harvested onto GF/C uni-filters (Packard) by filtration using a Packard harvester and washing with ice-cold wash buffer (50 mM Tris; pH 7.5). After anhydrousing, filter-retained radioactivity was detected by liquid scintillation counting. Ki values were calculated using Excel-Fit (Microsoft) and are the means of two determinations.

Setting [4] is: read-out: Ki h-GABAA α2β2γ1, Table 2, membranes of HEK293F cells, [3H]RO7239181.
The mark [5] stands for this setting: Table 2, membranes of HEK293F cells, [3H]RO7239181, read-out: Ki h-GABAA α2β2γ1.
Where [6] appears, read: membranes of HEK293F cells, [3H]RO7239181 20-30 nM, mean of two determinations, read-out: Ki h-GABAA α2β2γ1.
[7] abbreviates: membranes of HEK293F cells, [3H]RO7239181 1.5 nM, mean of two determinations, read-out: Ki h-GABAA α5β2γ1.
The mark [8] stands for this setting: HEK293F cell membranes, [3H]Flumazenil 1 nM, mean of two determinations, read-out: Ki h-GABAA α1β3γ2.

Structures are written as SMILES. Read-outs that look alike come from different tables or passages of the source.

A word on the Ki: it is a measure of affinity in units of concentration, obtained from inhibition or displacement.

As for `C[C@@H]1N=C(c2c(F)cccc2F)c2c(ccc(Br)c2Cl)-n2ccc(=O)nc21` [Example 13, (5S)-9-bromo-8-chloro-7-(2,6-difluorophenyl)-5-methyl-5H-pyrimido[1,2-a][1,4]benzodiazepin-3-one], the Ki in assay [1] is 11.4 nM; in assay [1] (setting [4]), 11.4 nM; in assay [2] it was 1 nM; in assay [3], 607 nM. For the same compound, in assay [1], the “γ2/γ1 Selectivity Ratio” value is reported as 53.3. The compound also had a LogSel in assay [1] of 1.73.
For the compound `CCc1cn2c(nc1=O)[C@H](C)N=C(c1c(F)cccc1F)c1c-2ccc(C(F)(F)F)c1Cl` [Example 11, (5S)-8-chloro-7-(2,6-difluorophenyl)-2-ethyl-5-methyl-9-(trifluoromethyl)-5H-pyrimido[1,2-a][1,4]benzodiazepin-3-one], the Ki in assay [1] was 40.1 nM; in assay [1] (setting [4]) it was 40.1 nM; in assay [2] it was 4.1 nM; in assay [3], 6090 nM. Further, the “γ2/γ1 Selectivity Ratio” value in assay [1] is 151.9. This compound had a LogSel in assay [1] of 2.18.
In the case of `CCO/C=C/c1cn2c(nc1=O)[C@H](C)N=C(c1c(F)cccc1F)c1c-2ccc(Cl)c1Cl` [Example 19, (5S)-8,9-dichloro-7-(2,6-difluorophenyl)-2-[(E)-2-ethoxyvinyl]-5-methyl-5H-pyrimido[1,2-a][1,4]benzodiazepin-3-one], the “γ2/γ1 Selectivity Ratio” value in assay [1] is given as 48.4. This compound also returned a LogSel in assay [1] of 1.68. Moreover, the inhibition constant (Ki) came out at 24.1 nM in assay [1] (setting [5]), 24.1 nM in assay [1] (setting [6]), 4.9 nM in assay [2] (setting [7]) and 1170 nM in assay [3] (setting [8]).
For the compound `Cc1cn2c(nc1=O)[C@H](C)N=C(c1c(F)cccc1F)c1c-2ccc(C(F)(F)F)c1Cl` [Example 9, (5S)-8-chloro-7-(2,6-difluorophenyl)-2,5-dimethyl-9-(trifluoromethyl)-5H-pyrimido[1,2-a][1,4]benzodiazepin-3-one], the Ki came to 28.4 nM in assay [1], 28.4 nM in assay [1] (setting [4]), 3.1 nM in assay [2] and 5950 nM in assay [3]. In assay [1], the “γ2/γ1 Selectivity Ratio” value is 209.4. Also, the LogSel in assay [1] came out at 2.32.
As for `C[C@@H]1N=C(c2c(F)cccc2F)c2c(ccc(C(F)(F)F)c2Cl)-n2cc(C(=O)NC3CC3)c(=O)nc21` [Example 28, (5S)-8-chloro-N-cyclopropyl-7-(2,6-difluorophenyl)-5-methyl-3-oxo-9-(trifluoromethyl)-5H-pyrimido[1,2-a][1,4]benzodiazepine-2-carboxamide], the “γ2/γ1 Selectivity Ratio” value in assay [1] stood at 338.4. For the same compound, in assay [1], the LogSel was 2.53. Besides, the inhibition constant (Ki) in assay [1] (setting [5]) stood at 33 nM; in assay [1] (setting [6]), 33 nM; in assay [2] (setting [7]) it was 7.4 nM; in assay [3] (setting [8]), 11200 nM.
`CCO/C=C/c1cn2c(nc1=O)CN=C(c1c(F)cccc1F)c1c-2ccc(Cl)c1Cl` [Example 22, 8,9-dichloro-7-(2,6-difluorophenyl)-2-[(E)-2-ethoxyvinyl]-5H-pyrimido[1,2-a][1,4]benzodiazepin-3-one]: in assay [1], the “γ2/γ1 Selectivity Ratio” value amounted to 73.8. For the same compound, the LogSel in assay [1] was 1.87. For the same compound, the Ki in assay [1] (setting [5]) is 15.3 nM; in assay [1] (setting [6]), 15.3 nM; in assay [2] (setting [7]), 2.1 nM; in assay [3] (setting [8]) it was 1130 nM.
Turning to `CCOCCc1cn2c(nc1=O)CN=C(c1c(F)cccc1F)c1c-2ccc(Cl)c1Cl` [Example 24, 8,9-dichloro-7-(2,6-difluorophenyl)-2-(2-ethoxyethyl)-5H-pyrimido[1,2-a][1,4]benzodiazepin-3-one], in assay [1], the “γ2/γ1 Selectivity Ratio” value is on record as 60.1. Besides, the LogSel in assay [1] is recorded as 1.78. Moreover, the Ki was determined as 30.3 nM in assay [1] (setting [5]), 30.3 nM in assay [1] (setting [6]), 3 nM in assay [2] (setting [7]) and 1820 nM in assay [3] (setting [8]).
Take `CCO/C=C/c1cn2c(nc1=O)CN=C(c1c(F)cccc1F)c1c-2ccc(C(F)(F)F)c1Cl` [Example 25, 8-chloro-7-(2,6-difluorophenyl)-2-[(E)-2-ethoxyvinyl]-9-(trifluoromethyl)-5H-pyrimido[1,2-a][1,4]benzodiazepin-3-one]: in assay [1], the “γ2/γ1 Selectivity Ratio” value is 306.4. The LogSel in assay [1] is given as 2.49. Further, the Ki in assay [1] (setting [5]) turned out to be 47.9 nM; in assay [1] (setting [6]), 47.9 nM; in assay [2] (setting [7]) it was 9.4 nM; in assay [3] (setting [8]) it was 14700 nM.
Turning to `O=c1ccn2c(n1)CN=C(c1ccccc1F)c1c-2ccc(Cl)c1Cl` [Example 1, 8,9-dichloro-7-(2-fluorophenyl)-5H-pyrimido[1,2-a][1,4]benzodiazepin-3-one], the Ki in assay [1] was found to be 57.9 nM; in assay [1] (setting [4]), 57.9 nM; in assay [2] it was 3.8 nM; in assay [3], 716 nM. Besides, in assay [1], the “γ2/γ1 Selectivity Ratio” value is 12.4. This compound also came in with a LogSel in assay [1] of 1.09.
For the compound `O=c1ccn2c(n1)CN=C(c1c(F)cccc1F)c1c-2ccc(Cl)c1Cl` [Example 2, 8,9-dichloro-7-(2,6-difluorophenyl)-5H-pyrimido[1,2-a][1,4]benzodiazepin-3-one], the Ki in assay [1] was 9.7 nM; in assay [1] (setting [4]), 9.7 nM; in assay [2], 1.1 nM; in assay [3], 462 nM. Moreover, in assay [1], the “γ2/γ1 Selectivity Ratio” value stood at 47.7. The LogSel in assay [1] is 1.68.
Take `CNC(=O)c1cn2c(nc1=O)[C@H](C)N=C(c1c(F)cccc1F)c1c-2ccc(C(F)(F)F)c1Cl` [Example 27, (5S)-8-chloro-7-(2,6-difluorophenyl)-N,5-dimethyl-3-oxo-9-(trifluoromethyl)-5H-pyrimido[1,2-a][1,4]benzodiazepine-2-carboxamide]: the “γ2/γ1 Selectivity Ratio” value in assay [1] is listed as 292.9. This compound also displayed a LogSel in assay [1] of 2.47. For the same compound, the inhibition constant Ki came out at 30.8 nM in assay [1] (setting [5]), 30.8 nM in assay [1] (setting [6]), 6.2 nM in assay [2] (setting [7]) and 9010 nM in assay [3] (setting [8]).
